Values joined by “and” are separate entries in the source; they are usually repeats but may differ in a detail not shown here. Equal values may be shown once. Square brackets hold non-standard residues; d marks the D form. Peptide text beside a SMILES is read from it. pS = N[C@@H](COP(=O)(O)O)C(=O)O
Assays:
mouse Pih1-PIH domain = target: T1, mouse Pih1-PIH domain (Mus musculus, UniProt Q9CQJ2); experiment: ITC, phosphopeptide binding to Pih1 PIH domain; settings: 30°C; for Kd: 20 mM Tris pH 7.5, 5 mM NaCl, peptides at 350 μM injected into 30 μM Pih1
T1 construct: We determined the crystal structure of the mouse PIH domain^1–200; His (N); made in house
Procedure: (§1) Heat of interaction was measured on an ITC200 microcalorimeter (Microcal) under the same buffer conditions (20 mM Tris, pH 7.5, containing 5 mM NaCl). Aliquots of the Tel2 peptides at 350 μM were injected into 30 μM of Pih1 at 30°C. Interactions with Tah1 or Spagh/RPAP3^120–395 were performed in 10 mM Tris pH 7.5 and 5 mM NaCl at 10°C and 30°C. Aliquots of 600 μM Tah1 were injected into 40 μM of yeast Hsp90, 400 μM of SRMEEVD injected into 30 μM Tah1, 301 μM yeast Hsp90 injected into 25 μM yeast Tah1-Pih1 complex, and 400 μM SRMEEVD injected into 30 μM yeast Tah1-Pih1 complex. For Spagh/RPAP3^120–395 experiments, aliquots of 500 μM yeast Hsp90 were injected into 20 μM Spagh/RPAP3^120–395 or 2 mM […] into 80 μM Spagh/RPAP3^120–395 or mutants (N172E, N321E, and N172E-N321E). Heats of dilution were determined by diluting injectant into buffer. Data were fitted using a curve-fitting algorithm (Microcal Origin). ATPase assays were previously described ([Prodromou et al., 1999]).

yeast Hsp90 = experiment: ITC, binding of Tah1 or Tah1-Pih1 complex to Hsp90 dimer; settings: for Kd: 10 mM Tris pH 7.5, 5 mM NaCl, 600 μM Tah1 into 40 μM yeast Hsp90, or 301 μM yeast Hsp90 into 25 μM yeast Tah1-Pih1 complex; for N (sites) / ΔH / ΔS: same titrations as KD
Procedure: as §1

T1 sequence (Q9CQJ2 1-200): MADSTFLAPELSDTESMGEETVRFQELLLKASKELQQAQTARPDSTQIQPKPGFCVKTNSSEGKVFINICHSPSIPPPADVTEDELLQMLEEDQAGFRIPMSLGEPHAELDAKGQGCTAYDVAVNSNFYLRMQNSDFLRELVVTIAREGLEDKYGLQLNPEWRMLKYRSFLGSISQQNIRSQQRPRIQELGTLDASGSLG

Compound: CC[C@H](C)[C@H](NC(=O)[C@H](CO)NC(=O)[C@H](CC(=O)O)NC(=O)[C@H](CC(=O)O)NC(=O)[C@H](COP(=O)(O)O)NC(=O)[C@H](CC(=O)O)NC(=O)[C@H](CC(N)=O)NC(=O)[C@H](C)NC(=O)[C@@H](N)CCSC)C(=O)O [Mre11 phosphoserine peptide] (H-MAND[pS]DDSI-OH; N-terminus and C-terminus assumed)
- ΔH (mouse Pih1-PIH domain): -7.313 ± 0.3547 kcal/mol
- ΔS (mouse Pih1-PIH domain): -0.36 cal/mol/deg
- N (mouse Pih1-PIH domain; fitted): 0.76 ± 0.03 sites

Compound: CC(C)C[C@H](NC(=O)[C@H](CCC(=O)O)NC(=O)[C@H](COP(=O)(O)O)NC(=O)[C@H](CC(=O)O)NC(=O)[C@H](COP(=O)(O)O)NC(=O)CNC(=O)[C@@H](N)CCC(N)=O)C(=O)N[C@@H](CC(=O)O)C(=O)N[C@@H](CO)C(=O)N[C@@H](CC(=O)O)C(=O)N[C@@H](CC(=O)O)C(=O)N[C@@H](CCC(=O)O)C(=O)N[C@@H](Cc1ccccc1)C(=O)O [pS486, pS488-Tel2]
- Kd (mouse Pih1-PIH domain): 37.9 µM

Compound: CC(C)C[C@H](NC(=O)[C@H](CCC(=O)O)NC(=O)[C@H](CO)NC(=O)[C@H](CC(=O)O)NC(=O)[C@H](COP(=O)(O)O)NC(=O)CNC(=O)[C@@H](N)CCC(N)=O)C(=O)N[C@@H](CC(=O)O)C(=O)N[C@@H](CO)C(=O)N[C@@H](CC(=O)O)C(=O)N[C@@H](CC(=O)O)C(=O)N[C@@H](CCC(=O)O)C(=O)N[C@@H](Cc1ccccc1)C(=O)O [pS486-Tel2]
- Kd (mouse Pih1-PIH domain): 115 µM and > 100 µM

Compound: CC(C)C[C@H](NC(=O)[C@H](CCC(=O)O)NC(=O)[C@H](COP(=O)(O)O)NC(=O)[C@H](CC(=O)O)NC(=O)[C@H](CO)NC(=O)CNC(=O)[C@@H](N)CCC(N)=O)C(=O)N[C@@H](CC(=O)O)C(=O)N[C@@H](COP(=O)(O)O)C(=O)N[C@@H](CC(=O)O)C(=O)N[C@@H](CC(=O)O)C(=O)N[C@@H](CCC(=O)O)C(=O)N[C@@H](Cc1ccccc1)C(=O)O [pS488,pS492-Tel2]
- Kd (mouse Pih1-PIH domain): 0.17 µM

Compound: CC(C)C[C@H](NC(=O)[C@H](CCC(=O)O)NC(=O)[C@H](COP(=O)(O)O)NC(=O)[C@H](CC(=O)O)NC(=O)[C@H](CO)NC(=O)CNC(=O)[C@@H](N)CCC(N)=O)C(=O)N[C@@H](CC(=O)O)C(=O)N[C@@H](CO)C(=O)N[C@@H](CC(=O)O)C(=O)N[C@@H](CC(=O)O)C(=O)N[C@@H](CCC(=O)O)C(=O)N[C@@H](Cc1ccccc1)C(=O)O [pS488-Tel2]
- Kd (mouse Pih1-PIH domain): 15.3 µM

Compound: CC(C)C[C@H](NC(=O)[C@H](CCC(=O)O)NC(=O)[C@H](CO)NC(=O)[C@H](CC(=O)O)NC(=O)[C@H](CO)NC(=O)CNC(=O)[C@@H](N)CCC(N)=O)C(=O)N[C@@H](CC(=O)O)C(=O)N[C@@H](COP(=O)(O)O)C(=O)N[C@@H](CC(=O)O)C(=O)N[C@@H](CC(=O)O)C(=O)N[C@@H](CCC(=O)O)C(=O)N[C@@H](Cc1ccccc1)C(=O)O [pS492-Tel2]
- Kd (mouse Pih1-PIH domain): 0.39 µM

Compound: Tah1-Pih1 complex: pre-assembled full-length yeast Tah1-Pih1 complex
- Kd (yeast Hsp90): 4 µM
- N (sites) (yeast Hsp90): 0.93 ± 0.04 sites
- ΔH (yeast Hsp90): -7.595 ± 0.404 kcal/mol
- ΔS (yeast Hsp90): -0.367 cal/mol/deg

Compound: Tah1: yeast TPR-domain protein, Hsp90 cochaperone of the R2TP complex
- Kd (yeast Hsp90): 5.9 µM
- N (sites) (yeast Hsp90): 0.68 ± 0.01 sites
- ΔH (yeast Hsp90): -8.445 ± 0.1642 kcal/mol
- ΔS (yeast Hsp90): -3.95 cal/mol/deg
